Experimental data: ChEMBL document CHEMBL1148090, “Antibacterial and antifungal sulfated alkane and alkenes from the hepatopancreas of the ascidian Halocynthia roretzi” (1994)

Columns and labels:
[1] = system: Vibrio alginolyticus; test: Antimicrobial activity against Vibrio alginolyticus ATCC 17749 at 0.2 ug/disk after 24 hrs by paper disk method; type: functional; details: ATCC 17749, 24 h, read-out: IZ
[2] = system: Umbelopsis ramanniana; test: Antimicrobial activity against Mortierella ramanniana at 0.2 ug/disk after 24 hrs by paper disk method; type: functional; details: read-out: IZ

Row | SMILES | zone of inhibition at 0.2 µg/disc [1] | zone of inhibition at 0.2 µg/disc [2]
1 | CC/C=C/C/C=C\CCCOS(=O)(=O)O | 12 mm | 10 mm
2 | CC/C=C\C/C=C\CCCOS(=O)(=O)O | 12 mm | 10 mm
3 | CC(C)CCCC(C)COS(=O)(=O)O (stereo not drawn) | 12 mm | 10 mm
4 | C=CC/C=C\C/C=C\CCOS(=O)(=O)O | 12 mm | 10 mm
